Results: paper PMC8072159, “5-Bis-(2,6-difluoro-benzylidene) Cyclopentanone Acts as a Selective 11β-Hydroxysteroid Dehydrogenase one Inhibitor to Treat Diet-Induced Nonalcoholic Fatty Liver Disease in Mice” (Frontiers in Pharmacology, 2021)

Tests used:
11β-HSD1 [1] = biological target: T1, 11β-HSD1 (Rattus norvegicus, UniProt P16232); test: 11β-HSD1 reductive activity in rat liver microsomes; type: biochemical
T1 construct: from tissue; host or cells: liver microsomes of male Sprague Dawley rats, prepared in house
T1 sequence (P16232 whole entry): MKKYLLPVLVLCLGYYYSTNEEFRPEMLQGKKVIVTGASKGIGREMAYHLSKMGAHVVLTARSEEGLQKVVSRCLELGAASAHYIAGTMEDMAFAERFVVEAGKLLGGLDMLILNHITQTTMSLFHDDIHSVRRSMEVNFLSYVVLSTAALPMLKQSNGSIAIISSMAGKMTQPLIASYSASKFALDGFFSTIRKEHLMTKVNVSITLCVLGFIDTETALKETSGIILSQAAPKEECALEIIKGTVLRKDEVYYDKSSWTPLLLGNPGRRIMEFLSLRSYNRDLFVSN
Method: (§1) Preparation of Rat and Mouse Liver and Kidney Microsomes
(§2) The liver and kidney microsomes were prepared as previously described ([Guo et al., 2012]). Briefly, the tissue was homogenized in […] phosphate buffered saline (PBS) containing 0.25 M sucrose, and the nuclei and large cell debris were removed by centrifugation at 1500 g for 10 min. The supernatant was transferred to a tube and the mitochondria were removed by centrifugation at 10, 000 × g for 30 min. The supernatant was transferred to an ultracentrifuge tube and centrifuged twice at 105,000 × g, the resulting microsomal precipitate was collected. The protein content was measured by the BCA kit according to the manufacturer’s instruction. The protein concentration was adjusted to 20 mg/ml. These proteins were used to measure 11β-HSD1 and 11β-HSD2 activities. […]
(§3) The reductive activity of 11β-HSD1 in rat, mouse, and human liver microsomes was measured as previously described ([Ge et al., 2005]). […] 11β-HSD1 activity was measured using 11-DHC or cortisone as a substrate. […] The inhibitory ability of the chemical relative to the control (DMSO solvent) was measured. […] The steroids in chloroform and methanol (90:10, v/v) were chromatographically separated on a thin layer plate, and radioactivity was measured using a scanning radiometer (System AR2000, Bioscan Inc., Washington, DC, United States). […]

11β-HSD1 [2] = biological target: T2, 11β-HSD1 (Mus musculus, UniProt P50172); test: 11β-HSD1 reductive activity in mouse liver microsomes; type: biochemical
T2 construct: from tissue; host or cells: mouse liver microsomes prepared in house (probably from Kunming mice)
T2 sequence (P50172 whole entry): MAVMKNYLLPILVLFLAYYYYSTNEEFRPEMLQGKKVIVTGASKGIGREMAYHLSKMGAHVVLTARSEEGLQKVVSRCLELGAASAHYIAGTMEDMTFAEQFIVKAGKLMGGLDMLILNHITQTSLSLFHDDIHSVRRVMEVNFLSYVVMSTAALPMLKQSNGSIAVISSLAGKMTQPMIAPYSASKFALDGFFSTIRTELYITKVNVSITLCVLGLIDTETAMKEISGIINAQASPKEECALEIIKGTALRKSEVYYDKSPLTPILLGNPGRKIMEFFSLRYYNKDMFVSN
Method: as §1, §2, §3

11β-HSD1 [3] = biological target: T1, 11β-HSD1; test: 11β-HSD1 activity in intact rat Leydig cells; type: cell-based; conditions: read-out: IC50 rat Leydig cell 11β-HSD1
Method: Isolation of Rat Adult Leydig Cells
Leydig cells were isolated as previously described ([Ge et al., 2006]). Briefly, after a week of adjustment, eighteen 35-day-old Sprague Dawley rats were killed by asphyxiation with carbon dioxide (CO2). The testis was removed. The testis was perfused with collagenase solution through the testicular artery. The testis was digested with collagenase and DNase for 15 min, and the digested cells were filtered with nylon mesh, and the cells were separated under a Percoll gradient. The cells with density of 1.070–1.088 g/ml were collected and washed. The purity of the Leydig cell fraction was evaluated by histochemical staining of 3β-hydroxysteroid dehydrogenase using 0.4 mM etiocholanolone as a steroid substrate and 2 mM NAD + as a cofactor and tetranitroblue tetrazolium as the H^+ acceptor as previously described ([Payne et al., 1980]). More than 95% of Leydig cells are strongly stained. […] In brief, an aliquot of 10^5 cells/ml in a 0.5 ml test tube was mixed with 0.1 ml of 0.4% trypan blue at room temperature for 5 min and the cells were then loaded into a hemocytometer for counting, and the numbers of non-viable (staining) and viable (not stained) cells were counted. Viability was calculated as the percentage of viable cells divided by the total number of cells, and the viability of Leydig cells (intact Leydig cells) was over 99%. […]

inhibition at 100 µM (11β-HSD1 [1]; 100 μM, initial screening, read-out: 11β-HSD1 inhibition, rat enzyme): 93.9 ± 0.42%
IC50 (11β-HSD1 [1]; rat liver microsomes, 25 nM 11DHC, NADPH): 378 nM
inhibition at 100 µM (11β-HSD1 [2]; 100 μM, initial screening, read-out: 11β-HSD1 inhibition, mouse enzyme): 94.5 ± 0.97%
IC50 (11β-HSD1 [2]; mouse liver microsomes, 25 nM 11DHC, NADPH): 244 nM
IC50 (11β-HSD1 [3]): 170 ± 3.8 nM
Structure (SMILES): O=C1/C(=C/c2c(F)cccc2F)CC/C1=C\c1c(F)cccc1F [WZS08, (2E,5E)-2,5-bis(2,6-difluorobenzylidene) Cyclopentanone]
